The test system of data set [1] is kokumi (initial taste, middle-after taste) scored by panelists. Put plainly: quantitative organoleptic evaluation test of kokumi-imparting activity. It is filed as in vivo, human. The settings on record: for Intensity of kokumi, Initial taste: inosine monophosphate 0.05 g/dl, sodium chloride 0.5 g/dl; for Intensity of kokumi, Initial taste / Intensity of kokumi, Middle-after taste: score 0 control, 3 strong, 5 extremely strong, n=4. The protocol:
Degree of kokumi-imparting activity of γ-Glu-Abu was investigated through a quantitative organoleptic evaluation test.
The quantitative organoleptic evaluation test was carried out as follows. Strength of the kokumi-imparting activity of a test compound was measured by using a mixture containing the test compound at 0.001 to 0.5 g/dl in distilled water containing sodium glutamate (0.05 g/dl), inosine monophosphate (0.05 g/dl), and sodium chloride (0.5 g/dl). A sample of the distilled water containing sodium glutamate, inosine monophosphate, and sodium chloride to which any test compound was not added was used as a no addition control. Samples that became acidic relative to the no addition control after dissolution of the test compound were used after pH of them was adjusted with NaOH to be within the range of ±0.2 from that of the no addition control.
The test was performed with organoleptic scores of 0 for the control, 3 for strong effect, and 5 for extremely strong effect, and n=4. Moreover, in order to make the criteria more definite, the scores of 0.001 g/dl of γ-Glu-Val-Gly for the initial taste and the middle-after taste were defined to be 3.0. The “middle-after taste” is a taste sensed in the periods for the middle taste and the aftertaste. Specifically, the initial taste, middle taste, and aftertaste are tastes sensed in the periods of 0 to 2 seconds, 2 to 5 seconds, and after 5 seconds, after eating, respectively, and the “middle-after taste” is a taste sensed in the period from 2 seconds to around 30 seconds. For the scoring, the linear scale method was used, in which determined scores were noted on a straight line on which positions of scores of from −5 to 5 were indicated. The panelists were consisted of persons who had experience of development of seasonings for foodstuffs for one year or longer in total, and could judge the difference of the titers of γ-Glu-Cys-Gly and γ-Glu-Val-Gly added to the tasty and salty solution to be about 10 times (this ability was periodically confirmed).
Kokumi-imparting activities of γ-Glu-Cys and other dipeptides were determined by the same quantitative organoleptic evaluation test as mentioned above.

The nature of another data set: storage stability. It is filed as physicochemical. The settings on record: compared with γ-Glu-Cys.
For a further data set, the system named is CaSR. Put plainly: CaSR agonist activity. The settings on record: previously found by the inventors.
[2] abbreviates: 0.01 g/dl in distilled water with sodium glutamate 0.05 g/dl.
The mark [3] stands for this setting: 0.01 g/dl in the same tasty and salty solution.
The mark [4] stands for this setting: 0.2 g/dl in distilled water with sodium glutamate 0.05 g/dl.
[5] abbreviates: 0.2 g/dl in the same tasty and salty solution.

Five compounds from patent US10537128B2, “Yeast, yeast extract containing gamma-Glu-Abu, and a method for producing the same” (AJINOMOTO CO., INC., priority 2010, dated 2020) can be followed below.

Chain of CaSR (P41180 20-1078): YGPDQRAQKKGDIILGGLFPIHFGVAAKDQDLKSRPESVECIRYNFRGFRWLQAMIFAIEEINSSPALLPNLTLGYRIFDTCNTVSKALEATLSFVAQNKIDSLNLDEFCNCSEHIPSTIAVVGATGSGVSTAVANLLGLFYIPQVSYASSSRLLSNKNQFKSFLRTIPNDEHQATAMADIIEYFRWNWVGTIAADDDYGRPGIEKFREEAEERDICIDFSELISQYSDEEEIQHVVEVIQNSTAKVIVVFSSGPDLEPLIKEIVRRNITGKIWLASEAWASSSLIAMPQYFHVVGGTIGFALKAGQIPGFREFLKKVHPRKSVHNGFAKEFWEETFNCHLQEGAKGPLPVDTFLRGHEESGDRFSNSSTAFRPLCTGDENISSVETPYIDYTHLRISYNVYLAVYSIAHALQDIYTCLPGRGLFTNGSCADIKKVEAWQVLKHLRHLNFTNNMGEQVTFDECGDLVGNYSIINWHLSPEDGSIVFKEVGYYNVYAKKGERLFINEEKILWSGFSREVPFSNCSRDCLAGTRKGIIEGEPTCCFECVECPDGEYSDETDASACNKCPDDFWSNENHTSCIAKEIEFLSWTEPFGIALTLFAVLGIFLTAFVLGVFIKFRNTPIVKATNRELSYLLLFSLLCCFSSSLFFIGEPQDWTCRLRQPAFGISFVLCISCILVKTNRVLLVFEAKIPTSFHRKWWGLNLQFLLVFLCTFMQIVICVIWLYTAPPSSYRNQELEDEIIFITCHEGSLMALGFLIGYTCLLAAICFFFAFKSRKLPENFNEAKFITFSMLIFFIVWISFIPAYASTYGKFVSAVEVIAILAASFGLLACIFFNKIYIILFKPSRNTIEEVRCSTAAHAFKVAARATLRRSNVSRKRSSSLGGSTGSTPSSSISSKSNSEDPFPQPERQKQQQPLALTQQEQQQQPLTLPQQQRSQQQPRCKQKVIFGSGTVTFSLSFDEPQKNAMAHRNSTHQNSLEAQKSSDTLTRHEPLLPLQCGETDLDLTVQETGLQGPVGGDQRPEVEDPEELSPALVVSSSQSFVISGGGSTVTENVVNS

Consider `N[C@@H](CCC(=O)N[C@@H](CS)C(=O)O)C(=O)O` [γ-Glu-Cys, γ-glutamylcysteine], for which the “Intensity of kokumi, Initial taste” value in data set [1] (setting [2]) came to 3.1. The “Intensity of kokumi, Middle-after taste” value in data set [1] (setting [3]) turned out to be 3.1.
On to “L-γ-glutamyl-L-2-aminobutyric acid [γ-Glu-Abu]”, for which the “Intensity of kokumi, Initial taste” value in data set [1] (0.005 g/dl in distilled water with sodium glutamate 0.05 g/dl) came to 3.8. Moreover, the “Intensity of kokumi, Middle-after taste” value in data set [1] (0.005 g/dl in the same tasty and salty solution) was determined as 3.2. For the same compound, the “kokumi-imparting activity (in words)” value in data set [1] (addition concentration range 0.001 to 0.5 g/dl) is given as “showed kokumi-imparting activity in a broad range”. For the same compound, in data set [1] (compared with γ-Glu-Ala), the “kokumi titer (in words)” value is “extremely high titer”. In addition, the “storage stability (in words)” value in “storage stability” is “superior storage stability”. Also, the “CaSR agonist activity (in words)” value with CaSR is “high CaSR agonist activity”.
`CC(C)[C@H](NC(=O)CC[C@H](N)C(=O)O)C(=O)O` [γ-Glu-Val]: the “Intensity of kokumi, Initial taste” value in data set [1] (setting [2]) is on record as 3.1. For the same compound, the “Intensity of kokumi, Middle-after taste” value in data set [1] (setting [3]) is recorded as 2.4.
Regarding `C[C@H](NC(=O)CC[C@H](N)C(=O)O)C(=O)O` [γ-Glu-Ala], the “Intensity of kokumi, Initial taste” value in data set [1] (setting [4]) was 4.5. The “Intensity of kokumi, Middle-after taste” value in data set [1] (setting [5]) stood at 4.3.
The like results for `N[C@@H](CCC(=O)N[C@@H](CO)C(=O)O)C(=O)O` [γ-Glu-Ser] were, in that order, 3.6 and 3.0.
